Values of other authors as cited in paper PMC5245897 (PLoS ONE, 2017).

System: GLP-1 receptor
Design: method as in PMID 8396143
Details: GLP-1 receptor antagonist

Exendin(9–39)
GLP-1 receptor binding (in words): GLP-1 receptor antagonist binding with high affinity
